Reference: ChEMBL document CHEMBL1201862, “PubChem BioAssay data set” (2004)
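Where inhibition never reached the appropriate level, the endpoint shown equals the highest concentration tested. Otherwise, values were interpolated linearly from a five-concentration, 48-hour dose response in 96-well plates. GI50: concentration for 50% inhibition of growth.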 Calls of active or inactive are those of the source. Cut-off read from the data, not from the text of the source: active = GI50 up to about 1.1 µM and inactive = higher.

Assays:
Assay in all cases: DTP human tumour cell line panel, 48 h
[1] = system: Hs-578T
[2] = system: UACC-257
[3] = system: MDA-MB-435
[4] = system: MOLT-4
[5] = system: U-251
[6] = system: UO-31
[7] = system: M14
[8] = system: OVCAR-4
[9] = system: NCI/ADR-RES
[10] = system: COLO 205
[11] = system: SF-268
[12] = system: SW-620
[13] = system: NCI-H23
[14] = system: OVCAR-3
[15] = system: MDA-MB-231
[16] = system: SN12C
[17] = system: NCI-H522
[18] = system: SF-539
[19] = system: Malme-3M
[20] = system: HT-29
[21] = system: SNB-19
[22] = system: CCRF-CEM
[23] = system: HOP-92
[24] = system: K562
[25] = system: OVCAR-5
[26] = system: KM12
[27] = system: PC-3
[28] = system: 786-0
[29] = system: SNB-75
[30] = system: SF-295
[31] = system: BT-549
[32] = system: TK-10
[33] = system: MCF7
[34] = system: HCC 2998
[35] = system: OVCAR-8
[36] = system: ACHN
[37] = system: MDA-N
[38] = system: EKVX
[39] = system: NCI-H226
[40] = system: HCT-116
[41] = system: IGROV-1
[42] = system: HOP-62
[43] = system: LOX IMVI
[44] = system: A549
[45] = system: SR
[46] = system: SK-OV-3
[47] = system: SK-MEL-28
[48] = system: CAKI-1
[49] = system: NCI-H460
[50] = system: T47D
[51] = system: SK-MEL-5
[52] = system: UACC-62

Measured: GI50

C(/C=N/N=C1NCCCCN1)=N\N=C1NCCCCN1
inactive: [1] > 100 µM | [2] > 100 µM | [3] > 100 µM | [4] > 100 µM | [5] > 100 µM | [6] > 100 µM | [7] > 100 µM | [8] > 100 µM | [9] > 100 µM | [10] > 100 µM | [11] > 100 µM | [12] > 100 µM | [13] > 100 µM | [14] > 100 µM | [15] > 100 µM | [16] > 100 µM | [17] > 100 µM | [18] > 100 µM | [19] > 100 µM | [20] > 100 µM | [21] > 100 µM | [22] > 100 µM | [23] > 100 µM | [24] > 100 µM | [25] > 100 µM | [26] > 100 µM | [27] > 100 µM | [28] > 100 µM | [29] > 100 µM | [30] > 100 µM | [31] > 100 µM | [32] > 100 µM | [33] > 100 µM | [34] > 100 µM | [35] > 100 µM | [36] > 100 µM | [37] > 100 µM | [38] > 100 µM | [39] > 100 µM | [40] > 100 µM | [41] > 100 µM | [42] > 100 µM | [43] > 100 µM | [44] > 100 µM | [45] > 100 µM | [46] > 100 µM | [47] > 100 µM | [48] > 100 µM | [49] > 100 µM | [50] > 100 µM | [51] > 100 µM | [52] > 100 µM
